Assay results from US20210386738A1, “COMBINATION OF PRMT5 INHIBITORS AND BCL-2 INHIBITORS” (GLAXOSMITHKLINE INTELLECTUAL PROPERTY DEVELOPMENT LIMITED, priority 2018, published 2021).

Tests used:
Type in all cases: cell-based
[1] = tested on: lymphoma cell line OCI-LY3; experiment: Standard 6-day growth-death assay, OCI-LY3; details: single agent or fixed 1:1 combination; for EC50 / IC50: Homo sapiens, 144 h; for EC50: average of n=2, read-out: dEC50; for IC50: average of n=2, read-out: gIC50; for Ymin-T0 / gIC100: average of n=2
Experimental: (§1) The majority cell lines were obtained from GSK BioCat group, American Type Culture Collection (ATCC), or the Deutsche Sammlung von Mikroorganismen and Zellbulturen (DSMZ). All cell lines were maintained in growth medium in T75 cm^2 flasks, incubated at 37° C. with 5% CO2 and split every 3 to 4 days. Growth media conditions and cell line information are detailed in Table 1. Cells were counted using the Vi-Cell Analyzer (Beckman Coulter ViCell) to obtain viable cell counts.
(§2) Optimal cell seeding density was determined for all cell lines by monitoring proliferation over a range of seeding densities in 384-well format and identifying the seeding density at which cells grew logarithmically throughout six days. 50 uL of cells per well were plated in 384-well plates at the optimal seeding density in preferred supplemented culture media. Three plates were prepared per cell line and incubated overnight at 37° C. in 5% CO2.
(§3) In these studies, lymphoma cell lines were treated with PRMT5 inhibitor, compound A and BCL-2 targeted inhibitor, ABT-199 single agent or in combination using a fixed 1:1 ratio of each inhibitor over a 20-point titration. For compound A single and fixed 1:1 ratio combination with ABT-199 cell proliferation assay, cells were treated in duplicate with a 20-point, two-fold dilution series of Compound A, ABT-199 (≥14 μM top dose) single or combo treatment, and ≤0.15% DMSO final concentration. Plates were incubated for six days at the conditions described above. Cell growth was measured using CellTiter-Glo (Promega) and luminescence signal was detected with a BioTek Synergy Neo microplate reader. A plate of untreated cells was read at the time of compound/biologic addition to determine the T0 value representing the starting number of cells. Data were fit with a four-parameter equation to generate a concentration response curve using Assay Client software.
(§4) Results were background corrected by subtraction of values from wells containing no cells, expressed as a percentage of the T0 value (value at time=0), and plotted against compound concentration. The T0 value was normalized to 100% and represents the number of cells present at the time of compound addition. The cellular response was determined for each compound using a 4- or 6-parameter curve fit of cell viability against concentration using Assay Client software. Growth IC50 (gIC50) values correspond to the concentration intersecting the mid-point of the growth window (between DMSO and T0 values). Growth IC100 (gIC100) values correspond to the concentration at which 100% growth inhibition is achieved, based on the growth window. The Ymin−T0 value, a measure of net population cell growth or death, is calculated by subtracting the T0 value (100%) from the Ymin value (%) that is determined from the fit of the concentration response curve. Death EC50 (dEC50) values correspond to the concentration at which 50% net cell death is observed.
(§5) Individual curves were quality checked for three criteria: outlier data points, cell growth (population doubling ≥1.5), and proper curve fitting. […] Individual curves were QC checked for outlier data points, cell growth (population doubling ≥1.5), and proper curve fitting. Obvious outlier data points were omitted only as needed to ensure proper curve fit.
(§6) For fixed ratio screening, combination activity was assessed by the fold change in gIC50 compared to the 2 single agent curves by dividing the compound ratio as necessary. Combinations showing >3-fold and >5-fold change from single agent are described as below: • Fold changes ≥5 are considered to represent strong synergy. • Fold changes between 3.0 and 4.9 are considered to represent weak synergy. • Fold changes <3 are considered to represent no synergy.

[2] = tested on: lymphoma cell line U-2932; experiment: Standard 6-day growth-death assay, U-2932; details: single agent or fixed 1:1 combination; for EC50 / IC50: Homo sapiens, U2932, 144 h; for EC50: average of n=2, read-out: dEC50; for IC50: average of n=2, read-out: gIC50; for Ymin-T0 / gIC100: average of n=2
Experimental: as §1, §2, §3, §4, §5, §6

[3] = tested on: lymphoma cell line NU-DUL-1; experiment: Standard 6-day growth-death assay, NU-DUL-1; details: single agent or fixed 1:1 combination; for IC50: average of n=2, read-out: gIC50; for Ymin-T0 / gIC100: average of n=2
Experimental: as §1, §2, §3, §4, §5, §6

[4] = tested on: lymphoma cell line JV-M2*; experiment: Standard 6-day growth-death assay, JV-M2*; details: single agent or fixed 1:1 combination; for IC50: average of n=2, read-out: gIC50; for Ymin-T0 / gIC100: average of n=2
Experimental: as §1, §2, §3, §4, §5, §6

SMILES	EC50 [1] [µM]	IC50 [1] [nM]	Ymin-T0 [1] [%]	gIC100 [1] [µM]	EC50 [2] [µM]	IC50 [2] [nM]	Ymin-T0 [2] [%]	gIC100 [2] [nM]	IC50 ([3]; Homo sapiens, 144 h) [µM]	Ymin-T0 [3] [%]	gIC100 [3] [µM]	EC50 ([4]; Homo sapiens, JVM-2, 144 h, average of n=2, read-out: dEC50) [µM]	IC50 ([4]; Homo sapiens, JVM-2, 144 h) [nM]	Ymin-T0 [4] [%]	gIC100 [4] [nM]	EC50 ([3]; Homo sapiens, 144 h, average of n=2, read-out: dEC50) [µM]
CC1(C)CCC(CN2CCN(c3ccc(C(=O)NS(=O)(=O)c4ccc(NCC5CCOCC5)c([N+](=O)[O-])c4)c(Oc4cnc5[nH]ccc5c4)c3)CC2)=C(c2ccc(Cl)cc2)C1 [ABT-199, venetoclax, reference compound]	7.51	1470	−76	7.157	3.07	113	−92	1366	3.02	−45	4.832	9.08	27	−63	1607	
O=C(NC[C@H](O)CN1CCc2ccccc2C1)c1ccnc(NC2CCC2)c1 [Compound A]	> 14.7	1960	488	14.663	3.07	281	−88	1542	3.73	−11	12.659		139	−14	2211	> 14.7
